# Measured values published in patent US20040010036A1, “N,N, -Substituted s-Aryl-Isothioureas, N,N,N, -Substituted s-Aryl-Isothioureas and combinatorial libraries thereof” (priority 2002, published 2004).
# Tested on: Streptococcus pyogenes (ATCC# 97-03 14289)
# Test: Anti-microbial screen (percent inhibition of growth, OD 570 nm)
# Format: cell-based
# Details: Spy4H: Streptococcus pyogenes, read at 4 hours, OD 570 nm; Conc 0.1776 mg ml
# Outline: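 Frozen stock diluted into 2×THB, compounds in DMSO added at time zero. OD 570 nm read at 0 h to correct for insoluble or coloured compounds and again at 4 h. Percent growth inhibition calculated against blank-corrected solvent controls.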
row,Compound,inhibition of growth at 177.6 µg/mL [%]
1,Cc1cccc(S/C(=N\Cc2ccc(F)cc2)N(CCc2ccc(Cl)cc2)Cc2cccc(O)c2)c1 [Cmpd 684],94.1
2,COCCN(Cc1ccc(O)cc1)/C(=N\c1cc(Cl)cc(Cl)c1)Sc1ccc(C)cc1 [Cmpd 653],80.2
3,Cc1ccc(CN(Cc2cccc(O)c2)/C(=N/c2ccc(C(F)(F)F)cc2)Sc2cccc(C)c2)cc1 [Cmpd 447],99.5
4,COc1cccc(S/C(=N/c2ccc(Cl)c(C(F)(F)F)c2)N(Cc2ccc(O)cc2)Cc2ccc(Cl)c(Cl)c2)c1 [Cmpd 73],85.8
5,COc1cccc(S/C(=N\c2ccc(F)c(Cl)c2)N(CCc2ccc(F)cc2)Cc2cccc(O)c2)c1 [Cmpd 934],94
6,COc1cccc(CN(Cc2ccc(O)cc2)/C(=N/c2ccc(Cl)c([N+](=O)[O-])c2)Sc2cccc(C)c2)c1 [Cmpd 1103],59.5
7,Cc1ccc(CN(Cc2cccc(O)c2)/C(=N\c2ccc(C(F)(F)F)cc2)Sc2ccc(C)cc2C)cc1 [Cmpd 207],95.9

# Same assay, conditions: Streptococcus pyogenes; Assay Spy4H; Conc 0.1776 mg ml; plates read at 570 nm at 0 time and at 4 hours
row,Compound,inhibition of growth at 177.6 µg/mL [%]
1,COc1cccc(S/C(=N\c2ccc(C(F)(F)F)cc2)N(CCc2ccc(F)cc2)Cc2cccc(O)c2)c1 [Cmpd 927],49.4
2,COc1cccc(CN(Cc2ccc(O)cc2)/C(=N\c2ccc(Cl)c(C(F)(F)F)c2)Sc2cccc(OC)c2)c1 [Cmpd 793],52.4
3,Cc1cccc(S/C(=N\c2ccc(F)c(Cl)c2)N(Cc2ccccc2)Cc2cccc(O)c2)c1 [Cmpd 1134],53.6
4,Cc1ccc(S/C(=N/c2ccc(Cl)c([N+](=O)[O-])c2)N(Cc2cccc(O)c2)CC2CCCCC2)c(C)c1 [Cmpd 1263],56.7
5,CCCCN(Cc1cccc(O)c1)/C(=N\c1ccc(C(F)(F)F)cc1)Sc1ccccc1 [Cmpd 727],56.3
6,Cc1ccc(S/C(=N/c2ccc(Cl)c(C(F)(F)F)c2)N(Cc2cccc(O)c2)CC2CCCCC2)c(C)c1 [Cmpd 1273],52.2
7,Cc1cccc(C/N=C(\Sc2ccccc2)N(Cc2cccc(O)c2)Cc2ccc(Cl)c(Cl)c2)c1 [Cmpd 842],49.3
8,COc1cccc(S/C(=N\c2cccc(Cl)c2)N(Cc2ccc(O)cc2)Cc2ccc(Cl)c(Cl)c2)c1 [Cmpd 52],52.6
